Test results taken from ChEMBL document CHEMBL1131770, “Multiple parallel synthesis of N,N-dialkyldipeptidylamines as N-type calcium channel blockers” (Bioorg Med Chem Lett, 1999).

target: Voltage-dependent N-type calcium channel subunit alpha-1B (Homo sapiens, UniProt Q00975); assay: In vitro antagonism of N-type voltage sensitive calcium channel in IMR-32 assay using fluorescent [Ca2+] indicator […] in the presence of 5 uM nitrendipine; type: functional
Sequence (Q00975 whole entry): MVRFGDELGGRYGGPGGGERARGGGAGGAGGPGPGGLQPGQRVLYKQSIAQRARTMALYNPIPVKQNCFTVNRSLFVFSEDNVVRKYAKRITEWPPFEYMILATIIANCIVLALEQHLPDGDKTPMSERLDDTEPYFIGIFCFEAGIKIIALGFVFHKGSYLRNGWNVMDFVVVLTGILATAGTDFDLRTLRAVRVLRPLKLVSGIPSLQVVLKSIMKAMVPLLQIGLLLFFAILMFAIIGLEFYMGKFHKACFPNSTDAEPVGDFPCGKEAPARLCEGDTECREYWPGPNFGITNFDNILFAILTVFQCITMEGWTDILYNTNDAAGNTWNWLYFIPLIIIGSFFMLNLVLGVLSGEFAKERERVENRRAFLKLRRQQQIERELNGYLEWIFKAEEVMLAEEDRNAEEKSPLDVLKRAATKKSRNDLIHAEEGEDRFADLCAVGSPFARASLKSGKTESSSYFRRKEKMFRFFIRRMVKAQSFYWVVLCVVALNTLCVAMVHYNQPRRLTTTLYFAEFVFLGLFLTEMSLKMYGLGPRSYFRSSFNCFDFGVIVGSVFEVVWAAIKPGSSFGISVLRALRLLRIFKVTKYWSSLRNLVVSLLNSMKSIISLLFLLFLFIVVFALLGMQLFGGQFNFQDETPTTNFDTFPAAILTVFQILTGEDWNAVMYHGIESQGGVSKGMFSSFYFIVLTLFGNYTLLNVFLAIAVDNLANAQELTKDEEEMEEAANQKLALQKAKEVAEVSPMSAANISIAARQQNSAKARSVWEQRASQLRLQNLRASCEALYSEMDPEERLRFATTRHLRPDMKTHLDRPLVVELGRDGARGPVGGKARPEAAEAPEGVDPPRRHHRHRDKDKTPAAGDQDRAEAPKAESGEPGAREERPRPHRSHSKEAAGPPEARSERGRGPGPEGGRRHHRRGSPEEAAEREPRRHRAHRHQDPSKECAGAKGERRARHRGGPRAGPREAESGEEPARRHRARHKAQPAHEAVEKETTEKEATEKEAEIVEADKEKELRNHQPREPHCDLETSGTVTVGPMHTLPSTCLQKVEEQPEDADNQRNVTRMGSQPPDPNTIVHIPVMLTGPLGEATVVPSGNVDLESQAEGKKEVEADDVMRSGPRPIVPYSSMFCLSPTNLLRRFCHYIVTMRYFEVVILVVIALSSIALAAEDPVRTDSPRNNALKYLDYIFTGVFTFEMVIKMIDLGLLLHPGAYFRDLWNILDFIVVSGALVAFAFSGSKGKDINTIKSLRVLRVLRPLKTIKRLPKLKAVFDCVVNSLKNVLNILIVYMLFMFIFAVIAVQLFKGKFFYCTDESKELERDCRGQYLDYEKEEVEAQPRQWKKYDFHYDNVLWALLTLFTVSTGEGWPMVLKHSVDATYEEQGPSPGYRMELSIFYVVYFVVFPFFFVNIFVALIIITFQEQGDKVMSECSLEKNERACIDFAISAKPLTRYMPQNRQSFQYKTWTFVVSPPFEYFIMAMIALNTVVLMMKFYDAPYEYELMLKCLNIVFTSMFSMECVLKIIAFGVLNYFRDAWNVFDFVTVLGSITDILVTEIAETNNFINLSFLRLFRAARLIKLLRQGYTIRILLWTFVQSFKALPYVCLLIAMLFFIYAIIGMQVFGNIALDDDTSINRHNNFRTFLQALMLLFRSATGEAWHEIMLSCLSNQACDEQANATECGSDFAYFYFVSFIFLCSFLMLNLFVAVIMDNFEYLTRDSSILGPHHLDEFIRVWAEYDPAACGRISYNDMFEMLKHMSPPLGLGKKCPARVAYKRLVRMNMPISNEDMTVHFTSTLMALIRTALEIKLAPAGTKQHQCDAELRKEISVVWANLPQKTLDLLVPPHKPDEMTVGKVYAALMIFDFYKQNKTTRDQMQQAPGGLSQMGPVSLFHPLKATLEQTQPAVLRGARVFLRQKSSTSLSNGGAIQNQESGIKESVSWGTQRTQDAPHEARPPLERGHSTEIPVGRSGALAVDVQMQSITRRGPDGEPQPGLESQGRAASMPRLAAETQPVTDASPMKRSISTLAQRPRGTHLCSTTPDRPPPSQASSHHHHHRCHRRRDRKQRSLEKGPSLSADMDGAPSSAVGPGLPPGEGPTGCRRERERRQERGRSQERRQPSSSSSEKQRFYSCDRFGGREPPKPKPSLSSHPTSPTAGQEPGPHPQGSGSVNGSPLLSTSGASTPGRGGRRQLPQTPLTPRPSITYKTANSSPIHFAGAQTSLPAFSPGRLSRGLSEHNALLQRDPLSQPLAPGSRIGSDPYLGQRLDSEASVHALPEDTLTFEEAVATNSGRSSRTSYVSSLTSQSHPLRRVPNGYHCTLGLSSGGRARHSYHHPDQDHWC

Row | SMILES | IC50
1 | CC(C)C[C@@H](C(=O)N[C@@H](Cc1ccc(OCc2ccccc2)cc1)C(=O)N1CCN(C)CC1)N(C)CC1CCCCC1 | 1200 nM
2 | CC(C)CCN(C)[C@@H](CC(C)C)C(=O)N[C@@H](Cc1ccc(OCc2ccccc2)cc1)C(=O)NC(C)(C)C | 320 nM
3 | CC(C)CCN(C)[C@@H](CC(C)C)C(=O)N[C@@H](Cc1ccc(OCc2ccccc2)cc1)C(=O)N1CCCCC1 | 660 nM
4 | CC(C)C[C@@H](C(=O)N[C@@H](Cc1ccc(OCc2ccccc2)cc1)C(=O)NCCN1CCCCC1)N(C)C | 4100 nM
5 | CC(C)C[C@@H](C(=O)N[C@@H](Cc1ccc(OCc2ccccc2)cc1)C(=O)NC(C)(C)C)N(C)Cc1ccc(C(C)(C)C)cc1 | 40 nM
6 | CC(C)CCN(C)[C@@H](CC(C)C)C(=O)N[C@@H](Cc1ccc(OCc2ccccc2)cc1)C(=O)NCCN1CCCCC1 | 1100 nM
7 | CC(C)C[C@@H](C(=O)N[C@@H](Cc1ccc(OCc2ccccc2)cc1)C(=O)N1CCCCC1)N(C)Cc1ccc(C(C)(C)C)cc1 | 90 nM
8 | CC(C)C[C@@H](C(=O)N[C@@H](Cc1ccc(OCc2ccccc2)cc1)C(=O)N1CCCCC1)N(C)CC1CCCCC1 | 320 nM
9 | CC(C)C[C@@H](C(=O)N[C@@H](Cc1ccc(OCc2ccccc2)cc1)C(=O)N1CCN(Cc2ccccc2)CC1)N(C)Cc1ccc(C(C)(C)C)cc1 | 500 nM
10 | CC(C)C[C@@H](C(=O)N[C@@H](Cc1ccc(OCc2ccccc2)cc1)C(=O)N1CCCCC1)N(C)C | 1900 nM
11 | CC(C)CCN(C)[C@@H](CC(C)C)C(=O)N[C@@H](Cc1ccc(OCc2ccccc2)cc1)C(=O)N1CCN(C)CC1 | 1200 nM
12 | CC(C)C[C@@H](C(=O)N[C@@H](Cc1ccc(OCc2ccccc2)cc1)C(=O)N1CCN(Cc2ccccc2)CC1)N(C)C | 1200 nM
13 | CC(C)C[C@@H](C(=O)N[C@@H](Cc1ccc(OCc2ccccc2)cc1)C(=O)NCCN1CCCCC1)N(C)C1CCCCC1 | 880 nM
14 | CC(C)C[C@@H](C(=O)N[C@@H](Cc1ccc(OCc2ccccc2)cc1)C(=O)NC1CCN(Cc2ccccc2)CC1)N(C)CC1CCCCC1 | 310 nM
15 | CC(C)C[C@@H](C(=O)N[C@@H](Cc1ccc(OCc2ccccc2)cc1)C(=O)NCCN1CCCCC1)N(C)CC1CCCCC1 | 1000 nM
16 | CC(C)C[C@@H](C(=O)N[C@@H](Cc1ccc(OCc2ccccc2)cc1)C(=O)NC(C)(C)C)N(C)C1CCCCC1 | 200 nM
17 | CC(C)C[C@@H](C(=O)N[C@@H](Cc1ccc(OCc2ccccc2)cc1)C(=O)NC(C)(C)C)N(C)CC1CCCCC1 | 500 nM
18 | CC(C)C[C@@H](C(=O)N[C@@H](Cc1ccc(OCc2ccccc2)cc1)C(=O)NC1CCN(Cc2ccccc2)CC1)N(C)C1CCCCC1 | 1300 nM
19 | CC(C)C[C@@H](C(=O)N[C@@H](Cc1ccc(OCc2ccccc2)cc1)C(=O)N1CCN(Cc2ccccc2)CC1)N(C)C1CCCCC1 | 760 nM
20 | CC(C)C[C@@H](C(=O)N[C@@H](Cc1ccc(OCc2ccccc2)cc1)C(=O)NC(C)(C)C)N(C)C | 2800 nM
21 | CC(C)C[C@@H](C(=O)N[C@@H](Cc1ccc(OCc2ccccc2)cc1)C(=O)NC1CCN(Cc2ccccc2)CC1)N(C)Cc1ccc(C(C)(C)C)cc1 | 270 nM
22 | CC(C)CCN(C)[C@@H](CC(C)C)C(=O)N[C@@H](Cc1ccc(OCc2ccccc2)cc1)C(=O)N1CCN(Cc2ccccc2)CC1 | 590 nM
23 | CC(C)C[C@@H](C(=O)N[C@@H](Cc1ccc(OCc2ccccc2)cc1)C(=O)NCCN1CCCCC1)N(C)Cc1ccc(C(C)(C)C)cc1 | 310 nM
24 | CC(C)CCN(C)[C@@H](CC(C)C)C(=O)N[C@@H](Cc1ccc(OCc2ccccc2)cc1)C(=O)NC1CCN(Cc2ccccc2)CC1 | 880 nM
25 | CC(C)C[C@@H](C(=O)N[C@@H](Cc1ccc(OCc2ccccc2)cc1)C(=O)N1CCN(C)CC1)N(C)Cc1ccc(C(C)(C)C)cc1 | 440 nM
26 | CC(C)C[C@@H](C(=O)N[C@@H](Cc1ccc(OCc2ccccc2)cc1)C(=O)N1CCN(Cc2ccccc2)CC1)N(C)CC1CCCCC1 | 420 nM
27 | CC(C)C[C@@H](C(=O)N[C@@H](Cc1ccc(OCc2ccccc2)cc1)C(=O)N1CCCCC1)N(C)C1CCCCC1 | 380 nM
28 | CC(C)C[C@@H](C(=O)N[C@@H](Cc1ccc(OCc2ccccc2)cc1)C(=O)N1CCN(C)CC1)N(C)C1CCCCC1 | 5600 nM
29 | CC(C)C[C@@H](C(=O)N[C@@H](Cc1ccc(OCc2ccccc2)cc1)C(=O)N1CCN(C)CC1)N(C)C | 13000 nM
30 | CC(C)C[C@@H](C(=O)N[C@@H](Cc1ccc(OCc2ccccc2)cc1)C(=O)NC1CCN(Cc2ccccc2)CC1)N(C)C | 2600 nM
